Measured values as given in patent US20240279207A1, “SUBSTITUTED ACYL SULFONAMIDES FOR TREATING CANCER” (The Broad Institute, Inc., priority 2020, published 2024).

Experiments:
[1] = molecular target: T1, Recombinant human His-tagged Kat6a protein (amino acids 194-810) (Homo sapiens, UniProt Q92794); test: Kat6a activity assay (TR-FRET, acetylation of Histone-H4-derived peptide); assay type: biochemical; conditions: 60 mins at 22° C., 220 nM H4 peptide, 600 nM Acetyl Coenzyme A, read-out: KAT6A - DPF/HAT domain IC50 [mol/l] (arithmetic mean)
T1 construct: Kat6a protein (amino acids 194-810); His
Experimental: Kat6a inhibitory activities of the compounds described in the present invention were quantified using a Fluorescence Resonance Energy Transfer (TR-FRET) assay which measures acetylation of a synthetic, biotinylated Histone-H4-derived peptide by the enzyme.
In this case 50 nl DMSO were used instead of compounds. […] IC50 values were determined by regression analysis based on a 4 parameter equation (minimum, maximum, ICM, Hill; Y=Max+(Min−Max)/(1+(X/ICso) Hill) using the Screener Software (Genedata).

[2] = system: ESR1 transcription in MVLN cells; test: MVLN reporter assay: repression of ESR1 transcription (luciferase signal); assay type: cell-based; conditions: Homo sapiens, MVLN, 24 h, luciferase signal after 24 h, read-out: MVLN reporter assay, IC50 [M] (arithmetic mean)
Source text: KAT6A controls transcription of the ESR1 gene in breast cancer cells. Compound treatment that interferes with this mechanism was quantified using MVLN cells. These cells constitutively express the ER and are stably transfected with the luciferase (LUC) reporter gene and the corresponding hormone responsive element derived from the 5′-flanking region of the Xenopus Vitellogenin A2 gene (Pons et al., 1990, Demirpense et al., 1993, Joyeux et al., 1993). The repressive effect on ERα transcription activity of a test chemical is directly related to the luciferase measured in the lysate of treated MVLN cells. […] Each sample was prepared as duplicate and rim wells were excluded. For luciferase signal determination 100 μl of a 1:1 mixture of Steadylite plus (Perkin Elmer; 6016759) and assay medium was added after 24 h for 15 minutes and measured in Victor X3 (Perkin Elmer). To exclude any effects caused by cell loss during the treatment, cell density was determined using Alamar Blue (Invitrogen; DAL1100). Prior to the luciferase measurement 10 μl Alamar Blue were added to each well and the plates were incubated for 2 h in the incubator. Then fluorescence was measured with Victor X3 (Perkin Elmer) at 530 nm/590 nm.

T1 sequence (Q92794 194-810): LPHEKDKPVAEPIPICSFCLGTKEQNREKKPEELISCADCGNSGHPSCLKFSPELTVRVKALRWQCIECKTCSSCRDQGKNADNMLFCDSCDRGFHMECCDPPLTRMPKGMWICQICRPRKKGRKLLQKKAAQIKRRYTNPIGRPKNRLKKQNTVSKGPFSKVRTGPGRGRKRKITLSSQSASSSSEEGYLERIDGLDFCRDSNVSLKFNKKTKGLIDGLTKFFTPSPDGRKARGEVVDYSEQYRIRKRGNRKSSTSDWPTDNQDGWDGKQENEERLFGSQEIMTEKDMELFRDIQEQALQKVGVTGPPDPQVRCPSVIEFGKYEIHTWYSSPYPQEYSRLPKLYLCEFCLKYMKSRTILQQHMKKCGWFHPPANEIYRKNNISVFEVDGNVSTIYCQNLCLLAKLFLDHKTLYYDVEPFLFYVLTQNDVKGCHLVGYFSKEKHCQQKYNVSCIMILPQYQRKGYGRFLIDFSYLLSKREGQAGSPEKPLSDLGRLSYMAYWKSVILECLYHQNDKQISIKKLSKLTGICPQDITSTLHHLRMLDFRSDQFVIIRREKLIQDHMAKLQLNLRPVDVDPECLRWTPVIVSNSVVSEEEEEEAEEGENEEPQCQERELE

SMILES | IC50 [1] | IC50 [2]
Cc1noc(-c2ccccc2S(=O)(=O)NC(=O)c2cc3c(F)cc(N4CCC4)cc3o2)n1 [Example 37, 6-(Azetidin-1-yl)-4-fluoro-N-[2-(3-methyl-1,2,4-oxadiazol-5-yl)benzene-1-sulfonyl]-1-benzofuran-2-carboxamide] | 181 nM | 7.04e-07 M
CC(C)c1cc(Br)ccc1S(=O)(=O)NC(=O)c1cc2c(F)cc(N3CCC3)cc2o1 [Example 38, 6-(Azetidin-1-yl)-N-[4-bromo-2-(propan-2-yl)benzene-1-sulfonyl]-4-fluoro-1-benzofuran-2-carboxamide] | 85.5 nM | 7.07e-07 M
CCCc1cccc(S(=O)(=O)NC(=O)c2cc3c(F)cc(N4CCC4)cc3o2)c1 [Example 40, 6-(Azetidin-1-yl)-4-fluoro-N-(3-propylbenzene-1-sulfonyl)-1-benzofuran-2-carboxamide] | 64.2 nM | 7.89e-07 M
Cn1ccc2cccc(S(=O)(=O)NC(=O)c3cc4c(F)cc(N5CCC5)cc4o3)c21 [Example 41, 6-(Azetidin-1-yl)-4-fluoro-N-(1-methyl-1H-indole-7-sulfonyl)-1-benzofuran-2-carboxamide] | 90.1 nM | 8.57e-07 M
CC(C)Nc1cccc(F)c1S(=O)(=O)NC(=O)c1cc2c(F)cc(N3CCC3)cc2o1 [Example 42, 6-(Azetidin-1-yl)-4-fluoro-N-{2-fluoro-6-[(propan-2-yl)amino]benzene-1-sulfonyl}-1-benzofuran-2-carboxamide] | 179 nM | 8.64e-07 M
Cc1ccc(F)c(S(=O)(=O)NC(=O)c2cc3c(F)cc(N4CCC4)cc3o2)c1 [Example 43, 6-(Azetidin-1-yl)-4-fluoro-N-(2-fluoro-5-methylbenzene-1-sulfonyl)-1-benzofuran-2-carboxamide] | 218 nM | 9.91e-07 M
CCc1noc(-c2ccccc2S(=O)(=O)NC(=O)c2cc3c(F)cc(N4CCC4)cc3o2)n1 [Example 44, 6-(Azetidin-1-yl)-N-[2-(3-ethyl-1,2,4-oxadiazol-5-yl)benzene-1-sulfonyl]-4-fluoro-1-benzofuran-2-carboxamide] | 189 nM | 1.01e-06 M
O=C(NS(=O)(=O)c1ccccc1S(=O)(=O)c1ccccc1)c1cc2c(F)cc(N3CCC3)cc2o1 [Example 45, 6-(Azetidin-1-yl)-N-[2-(benzenesulfonyl)benzene-1-sulfonyl]-4-fluoro-1-benzofuran-2-carboxamide] | 111 nM | 1.1e-06 M
CCNc1ccccc1S(=O)(=O)NC(=O)c1cc2c(F)cc(N3CCC3)cc2o1 [Example 46, 6-(azetidin-1-yl)-N-[2-(ethylamino)benzene-1-sulfonyl]-4-fluoro-1-benzofuran-2-carboxamide] | 122 nM | 1.15e-06 M
CCN(C)C(=O)c1ccccc1S(=O)(=O)NC(=O)c1cc2c(F)cc(N3CCC3)cc2o1 [Example 47, 6-(Azetidin-1-yl)-N-{2-[ethyl(methyl)carbamoyl]benzene-1-sulfonyl}-4-fluoro-1-benzofuran-2-carboxamide] | 109 nM | 1.3e-06 M
COCc1cccc(S(=O)(=O)NC(=O)c2cc3c(F)cc(N4CCC4)cc3o2)c1 [Example 48, 6-(Azetidin-1-yl)-4-fluoro-N-[3-(methoxymethyl)benzene-1-sulfonyl]-1-benzofuran-2-carboxamide] | 281 nM | 1.29e-06 M
CC(C)Nc1ccc(Cl)cc1S(=O)(=O)NC(=O)c1cc2c(F)cc(N3CCC3)cc2o1 [Example 49, 6-(Azetidin-1-yl)-N-{5-chloro-2-[(propan-2-yl)amino]benzene-1-sulfonyl}-4-fluoro-1-benzofuran-2-carboxamide] | 67.3 nM | 1.41e-06 M
O=C(NS(=O)(=O)c1c(F)cccc1NC1CC1)c1cc2c(F)cc(N3CCC3)cc2o1 [Example 50, 6-(Azetidin-1-yl)-N-[2-(cyclopropylamino)-6-fluorobenzene-1-sulfonyl]-4-fluoro-1-benzofuran-2-carboxamide] | 98.7 nM | 1.42e-06 M
CN(C)C(=O)c1ccccc1S(=O)(=O)NC(=O)c1cc2c(F)cc(N3CCC3)cc2o1 [Example 51, 6-(Azetidin-1-yl)-N-[2-(dimethylcarbamoyl)benzene-1-sulfonyl]-4-fluoro-1-benzofuran-2-carboxamide] | 189 nM | 1.51e-06 M

Results, then the compound that gave them:

IC50 [1] | IC50 [2] | SMILES
101 nM | 1.55e-06 M | O=C(NS(=O)(=O)c1ccccc1CCC(F)(F)F)c1cc2c(F)cc(N3CCC3)cc2o1 [Example 52, 6-(Azetidin-1-yl)-4-fluoro-N-[2-(3,3,3-trifluoropropyl)benzene-1-sulfonyl]-1-benzofuran-2-carboxamide]
698 nM | 1.58e-06 M | Cc1cccc(C(C)C)c1S(=O)(=O)NC(=O)c1cc2c(F)cc(N3CCC3)cc2o1 [Example 53, 6-(Azetidin-1-yl)-4-fluoro-N-[2-methyl-6-(propan-2-yl)benzene-1-sulfonyl]-1-benzofuran-2-carboxamide]
135 nM | 1.72e-06 M | CCOCc1ccc(Cl)c(S(=O)(=O)NC(=O)c2cc3c(F)cc(N4CCC4)cc3o2)c1 [Example 54, 6-(Azetidin-1-yl)-N-[2-chloro-5-(ethoxymethyl)benzene-1-sulfonyl]-4-fluoro-1-benzofuran-2-carboxamide]
106 nM | 1.69e-06 M | O=C(NS(=O)(=O)c1ccccc1/C=C/C(F)(F)F)c1cc2c(F)cc(N3CCC3)cc2o1 [Example 55, 6-(Azetidin-1-yl)-4-fluoro-N-{2-[(1E)-3,3,3-trifluoroprop-1-en-1-yl]benzene-1-sulfonyl}-1-benzofuran-2-carboxamide]
122 nM | 2.11e-06 M | O=C(NS(=O)(=O)c1cccc2nccnc12)c1cc2c(F)cc(N3CCC3)cc2o1 [Example 56, 6-(Azetidin-1-yl)-4-fluoro-N-(quinoxaline-5-sulfonyl)-1-benzofuran-2-carboxamide]
120 nM | 2.5e-06 M | COC(=O)Cc1ccc2c(S(=O)(=O)NC(=O)c3cc4c(F)cc(N5CCC5)cc4o3)cccc2c1 [Example 57, Methyl (5-{[6-(azetidin-1-yl)-4-fluoro-1-benzofuran-2-carbonyl]sulfamoyl}naphthalen-2-yl)acetate]
315 nM | 3.87e-06 M | CCCc1cccc(C(F)(F)F)c1S(=O)(=O)NC(=O)c1cc2c(F)cc(N3CCC3)cc2o1 [Example 58, 6-(Azetidin-1-yl)-4-fluoro-N-[2-propyl-6-(trifluoromethyl)benzene-1-sulfonyl]-1-benzofuran-2-carboxamide]
208 nM | 4.29e-06 M | COCCOc1ccc(Cl)c(S(=O)(=O)NC(=O)c2cc3c(F)cc(N4CCC4)cc3o2)c1 [Example 59, 6-(Azetidin-1-yl)-N-[2-chloro-5-(2-methoxyethoxy)benzene-1-sulfonyl]-4-fluoro-1-benzofuran-2-carboxamide]
476 nM | 5.29e-06 M | Cc1cnc(Cl)c(S(=O)(=O)NC(=O)c2cc3c(F)cc(N4CCC4)cc3o2)c1 [Example 60, 6-(Azetidin-1-yl)-N-(2-chloro-5-methylpyridine-3-sulfonyl)-4-fluoro-1-benzofuran-2-carboxamide]
399 nM | 5.6e-06 M | Cc1cccc(C2CCCC2)c1S(=O)(=O)NC(=O)c1cc2c(F)cc(N3CCC3)cc2o1 [Example 61, 6-(Azetidin-1-yl)-N-(2-cyclopentyl-6-methylbenzene-1-sulfonyl)-4-fluoro-1-benzofuran-2-carboxamide]
131 nM | 6.48e-06 M | O=C(NS(=O)(=O)c1cc(CO)ccc1OC(F)(F)F)c1cc2c(F)cc(N3CCC3)cc2o1 [Example 63, 6-(Azetidin-1-yl)-4-fluoro-N-[5-(hydroxymethyl)-2-(trifluoromethoxy)benzene-1-sulfonyl]-1-benzofuran-2-carboxamide]
85.1 nM | 8e-06 M | Cc1cccc(O)c1S(=O)(=O)NC(=O)c1cc2c(F)cc(N3CCC3)cc2o1 [Example 64, 6-(Azetidin-1-yl)-4-fluoro-N-(2-hydroxy-6-methylbenzene-1-sulfonyl)-1-benzofuran-2-carboxamide]
57.1 nM | 8.32e-06 M | COc1cccc2c(S(=O)(=O)NC(=O)c3cc4c(F)cc(N5CCC5)cc4o3)cccc12 [Example 65, 6-(Azetidin-1-yl)-4-fluoro-N-(5-methoxynaphthalene-1-sulfonyl)-1-benzofuran-2-carboxamide]
135 nM | 1e-05 M | CN(C)c1cccc2c(S(=O)(=O)NC(=O)c3cc4c(F)cc(N5CCC5)cc4o3)cccc12 [Example 66, 6-(Azetidin-1-yl)-N-[5-(dimethylamino)naphthalene-1-sulfonyl]-4-fluoro-1-benzofuran-2-carboxamide]
345 nM | 1.1e-05 M | COc1cccnc1S(=O)(=O)NC(=O)c1cc2c(F)cc(N3CCC3)cc2o1 [Example 67, 6-(Azetidin-1-yl)-4-fluoro-N-(3-methoxypyridine-2-sulfonyl)-1-benzofuran-2-carboxamide]
